Experiments:
[1] = target: Recombinant human Cbl-b (aa 36-427) (Homo sapiens (Human), UniProt Q13191); assay: Cbl-b Biochemical Assay (TR-FRET); details: read-out: TR-FRET hCbl-b IC50
Outline: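 Two-step TR-FRET: 6 nM biotinylated Cbl-b preincubated 30-60 min with compound, then 60 min at RT with 1-2.5 nM Src-Zap70 and 0.5 mM ATP in HEPES pH 7.0 buffer, 1% DMSO. Stopped with 5 mM EDTA plus 100 nM UBE2D2-Ub-FL-BODIPY and 1 nM streptavidin-Tb, 60 min; 520 nm signal; IC50 from 4-parameter fit.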

[2] = target: Recombinant human c-Cbl (aa 47-435) (Homo sapiens (Human), UniProt P22681); assay: c-Cbl Biochemical Assay (TR-FRET)
Outline: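 Biotinylated c-Cbl (6 nM) preincubated 30 min RT with compound, then reacted 60-90 min with Src-Zap70 (2.5-10 nM) and 0.5 mM ATP, pH 7.0 HEPES buffer. Stopped with EDTA; 100 nM Bodipy-ubiquitinated UBE2D2 binding read by TR-FRET after 60 min; IC50 from 4-parameter fit.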

Recombinant human c-Cbl (aa 47-435), sequence (P22681 47-435): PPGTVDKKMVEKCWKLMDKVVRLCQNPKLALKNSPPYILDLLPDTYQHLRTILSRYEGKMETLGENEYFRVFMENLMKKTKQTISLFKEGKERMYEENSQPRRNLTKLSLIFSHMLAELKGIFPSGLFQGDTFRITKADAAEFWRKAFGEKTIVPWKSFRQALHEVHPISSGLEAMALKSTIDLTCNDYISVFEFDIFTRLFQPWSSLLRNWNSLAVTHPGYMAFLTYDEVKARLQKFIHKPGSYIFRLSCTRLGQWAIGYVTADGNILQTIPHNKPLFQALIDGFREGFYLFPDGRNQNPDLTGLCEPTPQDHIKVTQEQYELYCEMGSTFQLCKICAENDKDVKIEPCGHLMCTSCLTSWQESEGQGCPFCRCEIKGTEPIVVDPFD
Recombinant human Cbl-b (aa 36-427), sequence (Q13191 36-427): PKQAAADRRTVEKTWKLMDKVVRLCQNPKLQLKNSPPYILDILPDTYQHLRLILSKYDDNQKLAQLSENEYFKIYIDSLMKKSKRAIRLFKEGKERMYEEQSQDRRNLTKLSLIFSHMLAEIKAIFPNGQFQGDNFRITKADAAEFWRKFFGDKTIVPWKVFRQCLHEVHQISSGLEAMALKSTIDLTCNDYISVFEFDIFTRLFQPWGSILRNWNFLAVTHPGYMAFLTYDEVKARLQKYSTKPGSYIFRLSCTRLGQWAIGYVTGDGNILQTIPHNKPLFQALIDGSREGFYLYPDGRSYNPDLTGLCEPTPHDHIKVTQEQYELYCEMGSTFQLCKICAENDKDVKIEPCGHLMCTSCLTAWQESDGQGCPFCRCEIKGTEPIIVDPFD

| SMILES | IC50 [1] [µM] | IC50 [2] [µM] |
| --- | --- | --- |
| Cn1cnnc1-c1cc(C#N)ccc1-c1cc(C2CC2)nc(N2Cc3cc(Cl)c(CO)cc3C2=O)c1 [AKN-12, 4-{2-[5-Chloro-6-(hydroxymethyl)-1-oxo-3H-isoindol-2-yl]-6-cyclopropylpyridin-4-yl}-3-(4-methyl-1,2,4-triazol-3-yl)benzonitrile] | ≤ 0.2 | ≤ 0.2 |
| Cn1cnnc1-c1cc(C#N)ccc1-c1cc(C2CC2)nc(N2Cc3cc(Cl)c(CNCC4CCCC4)cc3C2=O)c1 [AKO-2, 4-(2-(5-Chloro-6-(((cyclopentylmethyl)amino)methyl)-1-oxoisoindolin-2-yl)-6-cyclopropylpyridin-4-yl)-3-(4-methyl-4H-1,2,4-triazol-3-yl)benzonitrile] | ≤ 0.2 | ≤ 0.2 |
| CN(Cc1ccc2c(c1)C(=O)N(c1cc(-c3ccc(C#N)cc3-c3nncn3C)cc(C3CC3)n1)C2)CC1(O)CCC1 [AKP-1, 4-{2-Cyclopropyl-6-[6-({[(1-hydroxycyclobutyl)methyl](methyl)amino}methyl)-1-oxo-3H-isoindol-2-yl]pyridin-4-yl}-3-(4-methyl-1,2,4-triazol-3-yl)benzonitrile] | ≤ 0.2 | ≤ 0.2 |
| Cn1cnnc1-c1cc(C#N)ccc1-c1cc(C2CC2)nc(N2Cc3c(F)cc(CN4CC5CC5C4)cc3C2=O)c1 (stereo not drawn) [AKQ-2, 4-[2-(6-{3-Azabicyclo[3.1.0]hexan-3-ylmethyl}-4-fluoro-1-oxo-3H-isoindol-2-yl)-6-cyclopropylpyridin-4-yl]-3-(4-methyl-1,2,4-triazol-3-yl)benzonitrile] | ≤ 0.2 | ≤ 0.2 |
| Cn1cnnc1-c1cc(C#N)ccc1-c1cc(C2CC2)nc(N2Cc3c(F)cc(CN4C[C@@H]5C[C@H]4CO5)cc3C2=O)c1 [AKR-3, 4-(2-Cyclopropyl-6-{4-fluoro-6-[(1S,4S)-2-oxa-5-azabicyclo[2.2.1]heptan-5-ylmethyl]-1-oxo-3H-isoindol-2-yl}pyridin-4-yl)-3-(4-methyl-1,2,4-triazol-3-yl)benzonitrile] | ≤ 0.2 | ≤ 0.2 |
| Cn1cnnc1-c1cc(C#N)ccc1-c1cc(C2CC2)nc(N2Cc3c(F)cc(CNCC4CCC4)cc3C2=O)c1 [AKS-1, 4-[2-(6-{1[(Cyclobutylmethyl)amino]methyl}-4-fluoro-1-oxo-3H-isoindol-2-yl)-6-cyclopropylpyridin-4-yl]-3-(4-methyl-1,2,4-triazol-3-yl)benzonitrile] | ≤ 0.2 | ≤ 0.2 |
| CN(Cc1cc(F)c2c(c1)C(=O)N(c1cc(-c3ccc(C#N)cc3-c3nncn3C)cc(C3CC3)n1)C2)CC1CCC1 [AKT-1, 4-[2-(6-{[(Cyclobutylmethyl)(methyl)amino]methyl}-4-fluoro-1-oxo-3H-isoindol-2-yl)-6-cyclopropylpyridin-4-yl]-3-(4-methyl-1,2,4-triazol-3-yl)benzonitrile] | ≤ 0.2 | ≤ 0.2 |
| CCC1(NCc2cc3c(c(C(F)(F)F)c2)CN(c2cc(-c4ccc(C#N)cc4-c4nncn4C)cc(C4CC4)n2)C3=O)CC1 [AKU-2, 4-[2-Cyclopropyl-6-(6-{1[(1-ethylcyclopropyl)amino]methyl}-1-oxo-4-(trifluoromethyl)-3H-isoindol-2-yl)pyridin-4-yl]-3-(4-methyl-1,2,4-triazol-3-yl)benzonitrile] | ≤ 0.2 | ≤ 0.2 |
| CO[C@H](C)CNCc1cc(F)c2c(c1)C(=O)N(c1cc(-c3ccc(C#N)cc3-c3nncn3C)cc(C3CC3)n1)C2 [AKV-1, 4-{2-Cyclopropyl-6-[4-fluoro-6-({[(2R)-2-methoxypropyl]amino}methyl)-1-oxo-3H-isoindol-2-yl]pyridin-4-yl}-3-(4-methyl-1,2,4-triazol-3-yl)benzonitrile] | ≤ 0.2 | ≤ 0.2 |
| CO[C@@H](C)CNCc1cc(F)c2c(c1)C(=O)N(c1cc(-c3ccc(C#N)cc3-c3nncn3C)cc(C3CC3)n1)C2 [AKW-1, 4-{2-Cyclopropyl-6-[4-fluoro-6-({[(2S)-2-methoxypropyl]amino}methyl)-1-oxo-3H-isoindol-2-yl]pyridin-4-yl}-3-(4-methyl-1,2,4-triazol-3-yl)benzonitrile] | ≤ 0.2 | ≤ 0.2 |
| CCOc1cc(-c2ccc(C#N)cc2-c2nncn2C)cc(N2Cc3ccc(CO)cc3C2=O)n1 [AKX-1, 4-{2-Ethoxy-6-[6-(hydroxymethyl)-1-oxo-3H-isoindol-2-yl]pyridin-4-yl}-3-(4-methyl-1,2,4-triazol-3-yl)benzonitrile] | ≤ 0.2 | 0.2 to 1 |
| C[C@H]1CCCN(Cc2cc(F)c3c(c2)C(=O)N(c2cc(-c4ccc(C#N)cc4-c4nncn4C)cc(C4CC4)n2)C3)C1 [AKY-1, 4-[2-Cyclopropyl-6-(4-fluoro-6-{[(3S)-3-methylpiperidin-1-yl]methyl}-1-oxo-3H-isoindol-2-yl)pyridin-4-yl]-3-(4-methyl-1,2,4-triazol-3-yl)benzonitrile] | ≤ 0.2 | ≤ 0.2 |
| Cn1cnnc1-c1cc(C#N)ccc1-c1cc(C2CC2)nc(N2Cc3c(F)cc(CNCC4(F)CC4)cc3C2=O)c1 [AKZ-2, 4-{2-Cyclopropyl-6-[4-fluoro-6-({[(1-fluorocyclopropyl)methyl]amino}methyl)-1-oxo-3H-isoindol-2-yl]pyridin-4-yl}-3-(4-methyl-1,2,4-triazol-3-yl)benzonitrile] | ≤ 0.2 | ≤ 0.2 |
| Cn1cnnc1-c1cc(C#N)ccc1-c1cc(C2CC2)nc(N2Cc3c(Br)cc(CO)cc3C2=O)c1 [ALA-5, 4-{2-[4-Bromo-6-(hydroxymethyl)-1-oxo-3H-isoindol-2-yl]-6-cyclopropylpyridin-4-yl}-3-(4-methyl-1,2,4-triazol-3-yl)benzonitrile] | ≤ 0.2 | ≤ 0.2 |
| COCCNCc1cc(Br)c2c(c1)C(=O)N(c1cc(-c3ccc(C#N)cc3-c3nncn3C)cc(C3CC3)n1)C2 [ALB-2, 4-[2-(4-Bromo-6-{[(2-methoxyethyl)amino]methyl}-1-oxo-3H-isoindol-2-yl)-6-cyclopropylpyridin-4-yl]-3-(4-methyl-1,2,4-triazol-3-yl)benzonitrile] | ≤ 0.2 | ≤ 0.2 |
| CO[C@H](C)[C@@H](C)NCc1cc(F)c2c(c1)C(=O)N(c1cc(-c3ccc(C#N)cc3-c3nncn3C)cc(C3CC3)n1)C2 [ALC-2, 4-{2-Cyclopropyl-6-[4-fluoro-6-({[(2R,3R)-3-methoxybutan-2-yl]amino}methyl)-1-oxo-3H-isoindol-2-yl]pyridin-4-yl}-3-(4-methyl-1,2,4-triazol-3-yl)benzonitrile] | ≤ 0.2 | ≤ 0.2 |
| Cn1cnnc1-c1cc(C#N)ccc1-c1cc(C2CC2)nc(N2Cc3ccc(CNCC(C)(C)F)cc3C2=O)c1 [ALD-2, 4-[2-Cyclopropyl-6-(6-{[(2-fluoro-2-methylpropyl)amino]methyl}-1-oxo-3H-isoindol-2-yl)pyridin-4-yl]-3-(4-methyl-1,2,4-triazol-3-yl)benzonitrile] | ≤ 0.2 | ≤ 0.2 |
| Cn1cnnc1-c1cc(C#N)ccc1-c1cc(C2CC2)nc(N2Cc3cnc(CO)cc3C2=O)c1 [ALE-7, 4-{2-Cyclopropyl-6-[6-(hydroxymethyl)-1-oxo-3H-pyrrolo[3,4-c]pyridin-2-yl]pyridin-4-yl}-3-(4-methyl-1,2,4-triazol-3-yl)benzonitrile] | 0.2 to 1 | ≤ 0.2 |
| Cn1cnnc1-c1cc(C#N)ccc1-c1cc(C2CC2)nc(N2Cc3cnc(CNCC4CCC4)cc3C2=O)c1 [ALF-2, 4-[2-(6-{[(Cyclobutylmethyl)amino]methyl}-1-oxo-3H-pyrrolo[3,4-c]pyridin-2-yl)-6-cyclopropylpyridin-4-yl]-3-(4-methyl-1,2,4-triazol-3-yl)benzonitrile] | ≤ 0.2 | ≤ 0.2 |
| COC[C@@H](C)NCc1cc(F)c2c(c1)C(=O)N(c1cc(-c3ccc(C#N)cc3-c3nncn3C)cc(C3CC3)c1)C2 [ALG-3, 3′-cyclopropyl-5′-[4-fluoro-6-({[(2R)-1-methoxypropan-2-yl]amino}methyl)-1-oxo-3H-isoindol-2-yl]-2-(4-methyl-1,2,4-triazol-3-yl)-[1,1′-biphenyl]-4-carbonitrile] | ≤ 0.2 | ≤ 0.2 |
| COC[C@H](C)NCc1cc(F)c2c(c1)C(=O)N(c1cc(-c3ccc(C#N)cc3-c3nncn3C)cc(C3CC3)c1)C2 [ALH-1, 3′-Cyclopropyl-5′-[4-fluoro-6-({[(2S)-1-methoxypropan-2-yl]amino}methyl)-1-oxo-3H-isoindol-2-yl]-2-(4-methyl-1,2,4-triazol-3-yl)-[1,1′-biphenyl]-4-carbonitrile] | ≤ 0.2 | ≤ 0.2 |
| Cn1cnnc1-c1cc(C#N)ccc1-c1cc(C2CC2)nc(N2Cc3c(F)cc(CN[C@@H]4COC[C@@H]4O)cc3C2=O)c1 [ALI-2, 4-{2-Cyclopropyl-6-[4-fluoro-6-({[(3R,4R)-4-hydroxyoxolan-3-yl]amino}methyl)-1-oxo-3H-isoindol-2-yl]pyridin-4-yl}-3-(4-methyl-1,2,4-triazol-3-yl)benzonitrile] | ≤ 0.2 | ≤ 0.2 |
| Cn1cnnc1-c1cc(C#N)ccc1-c1cc(C2CC2)nc(N2Cc3ccc(CN4CC(F)C4)cc3C2=O)c1 [ALJ-1, 4-(2-Cyclopropyl-6-{6-[(3-fluoroazetidin-1-yl)methyl]-1-oxo-3H-isoindol-2-yl}pyridin-4-yl)-3-(4-methyl-1,2,4-triazol-3-yl)benzonitrile] | ≤ 0.2 | ≤ 0.2 |
| Cn1cnnc1-c1cc(C#N)ccc1-c1cc(C2CC2)nc(N2Cc3ccc(C(C)(C)N)cc3C2=O)c1 [ALK-9, 4-{2-[6-(2-Aminopropan-2-yl)-1-oxo-3H-isoindol-2-yl]-6-cyclopropylpyridin-4-yl}-3-(4-methyl-1,2,4-triazol-3-yl)benzonitrile] | ≤ 0.2 | ≤ 0.2 |

From patent publication US12325697B2 (Nimbus Clio, Inc., priority 2021, dated 2025)
